The record followed here is US9499550B2 (BRISTOL-MYERS SQUIBB COMPANY, priority 2012, dated 2016).

Each structure is given as a SMILES string.

In assay [1] the test system is HCV genotype 1a (H77 strain) replicon in HUH-7 cells. Description: HCV replicon luciferase reporter assay, genotype 1a. It counts as cell-based. The conditions noted are these: Hepatitis C virus, Huh-7, 72 h, HCV genotype 1a replicon luciferase, 3 days incubation, read-out: LE_1a (EC50, range). In short, it runs like this: (§1)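 Replicon inhibition for both genotypes was measured as Renilla luciferase signal (EnduRen, 7.5 μM final, 2 h) after 3-day, 37° C exposure of replicon-bearing HUH-7 cells in 4% FCS DMEM, 0.5% DMSO. The 1b construct carries S1179I; the 1a H77 construct carries P1496L and S2204I. Twenty-point, 3-fold dilutions were fitted four-parametrically for EC50, and CC50 was taken from multiplexed Cell Titer-Blue.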
For orientation: A replicon is a self-replicating genome or part of one, used to study replication in cells.

The subject of assay [2] is HCV genotype 1b (Con1) replicon in HUH-7 cells. Description: HCV replicon luciferase reporter assay, genotype 1b. It counts as cell-based. The conditions noted are these: Hepatitis C virus, Huh-7, 72 h, HCV genotype 1b replicon luciferase, 3 days incubation, read-out: LE_1b (EC50, range). Put shortly: as §1

A word on the EC50: it is the concentration giving half of the maximal effect. `COc1ccc2c(O[C@@H]3C[C@H]4C(=O)N[C@]5(C(=O)NS(=O)(=O)C6CC6)C[C@H]5/C=C\CC[C@H](C)C[C@@H](C)[C@H](NC(=O)OC(C)(C)C(C)(F)F)C(=O)N4C3)nc(-c3ccc(OC(C)C)cn3)cc2c1` [Compound 5474, 3,3-difluoro-2-methylbutan-2-yl((2R,6S,7R,9S,13aS,14aR,16aS,Z)-14a-((cyclopropylsulfonyl)carbamoyl)-2-((3-(5-isopropoxypyridin-2-yl)-6-methoxyisoquinolin-1-yl)oxy)-7,9-dimethyl-5,16-dioxo-1,2,3,5,6,7,8,9,10,11,13a,14,14a,15,16,16a-hexadecahydrocyclopropa[e]pyrrolo[1,2-a][1,4]diazacyclopentadecin-6-yl)carbamate]: the EC50 in assay [1] and in assay [2] was 1.01 to 5 nM throughout.

Regarding `COc1ccc2c(O[C@@H]3C[C@H]4C(=O)N[C@]5(C(=O)NS(=O)(=O)C6CC6)C[C@H]5/C=C\CC[C@@H](C)C[C@@H](C)[C@H](NC(=O)OC(C)(C)C(C)(F)F)C(=O)N4C3)nc(-c3ccc(OC(C)C)cn3)cc2c1` [Compound 5475, 3,3-difluoro-2-methylbutan-2-yl((2R,6S,7R,9R,13aS,14aR,16aS,Z)-14a-((cyclopropylsulfonyl)carbamoyl)-2-((3-(5-isopropoxypyridin-2-yl)-6-methoxyisoquinolin-1-yl)oxy)-7,9-dimethyl-5,16-dioxo-1,2,3,5,6,7,8,9,10,11,13a,14,14a,15,16,16a-hexadecahydrocyclopropa[e]pyrrolo[1,2-a][1,4]diazacyclopentadecin-6-yl)carbamate], the EC50 in assay [1] and in assay [2] was 0.51 to 1 nM in each case.

With `COc1ccc2c(O[C@@H]3C[C@H]4C(=O)N[C@]5(C(=O)NS(=O)(=O)C6(C)CC6)C[C@H]5/C=C\CC[C@H](C)C[C@@H](C)[C@H](NC(=O)OC(C)(C)C(C)(F)F)C(=O)N4C3)nc(-c3ccc(OC(C)C)cn3)cc2c1` [Compound 5476, 3,3-difluoro-2-methylbutan-2-yl((2R,6S,7R,9S,13aS,14aR,16aS,Z)-2-((3-(5-isopropoxypyridin-2-yl)-6-methoxyisoquinolin-1-yl)oxy)-7,9-dimethyl-14a-(((1-methylcyclopropyl)sulfonyl)carbamoyl)-5,16-dioxo-1,2,3,5,6,7,8,9,10,11,13a,14,14a,15,16,16a-hexadecahydrocyclopropa[e]pyrrolo[1,2-a][1,4]diazacyclopentadecin-6-yl)carbamate], the EC50 lay within 5.01 to 35 nM in assay [1] and 1.01 to 5 nM in assay [2].

For `COc1ccc2c(O[C@@H]3C[C@H]4C(=O)N[C@]5(C(=O)NS(=O)(=O)C6(C)CC6)C[C@H]5/C=C\CC[C@@H](C)C[C@@H](C)[C@H](NC(=O)OC(C)(C)C(C)(F)F)C(=O)N4C3)nc(-c3ccc(OC(C)C)cn3)cc2c1` [Compound 5477, 3,3-difluoro-2-methylbutan-2-yl((2R,6S,7R,9R,13aS,14aR,16aS,Z)-2-((3-(5-isopropoxypyridin-2-yl)-6-methoxyisoquinolin-1-yl)oxy)-7,9-dimethyl-14a-(((1-methylcyclopropyl)sulfonyl)carbamoyl)-5,16-dioxo-1,2,3,5,6,7,8,9,10,11,13a,14,14a,15,16,16a-hexadecahydrocyclopropa[e]pyrrolo[1,2-a][1,4]diazacyclopentadecin-6-yl)carbamate], the half-maximal effective concentration (EC50) in assay [1] and in assay [2] was 1.01 to 5 nM throughout.

`CC[C@@H]1C[C@H](C)CC/C=C\[C@@H]2C[C@@]2(C(=O)NS(=O)(=O)C2CC2)NC(=O)[C@@H]2C[C@@H](Oc3nc(-c4ccc(OC(C)C)cn4)cc4cc(OC)ccc34)CN2C(=O)[C@H]1NC(=O)OC(C)(C)C` [Compound 5479, tert-butyl ((2R,6S,7R,9R,13aS,14aR,16aS,Z)-14a-((cyclopropylsulfonyl)carbamoyl)-7-ethyl-2-((3-(5-isopropoxypyridin-2-yl)-6-methoxyisoquinolin-1-yl)oxy)-9-methyl-5,16-dioxo-1,2,3,5,6,7,8,9,10,11,13a,14,14a,15,16,16a-hexadecahydrocyclopropa[e]pyrrolo[1,2-a][1,4]diazacyclopentadecin-6-yl)carbamate]: the values for the concentration giving a half-maximal response (EC50) in assay [1] and in assay [2] were 1.01 to 5 nM and 0.51 to 1 nM, respectively.

Take `CC[C@@H]1C[C@H](C)CC/C=C\[C@@H]2C[C@@]2(C(=O)NS(=O)(=O)C2(C)CC2)NC(=O)[C@@H]2C[C@@H](Oc3nc(-c4ccc(OC(C)C)cn4)cc4cc(OC)ccc34)CN2C(=O)[C@H]1NC(=O)OC(C)(C)C` [Compound 5481, tert-butyl ((2R,6S,7R,9R,13aS,14aR,16aS,Z)-7-ethyl-2-((3-(5-isopropoxypyridin-2-yl)-6-methoxyisoquinolin-1-yl)oxy)-9-methyl-14a-(((1-methylcyclopropyl)sulfonyl)carbamoyl)-5,16-dioxo-1,2,3,5,6,7,8,9,10,11,13a,14,14a,15,16,16a-hexadecahydrocyclopropa[e]pyrrolo[1,2-a][1,4]diazacyclopentadecin-6-yl)carbamate]: the EC50 in assay [1] and in assay [2] was 1.01 to 5 nM throughout.

As to `CC[C@@H]1C[C@H](C)CC/C=C\[C@@H]2C[C@@]2(C(=O)NS(=O)(=O)C2CC2)NC(=O)[C@@H]2C[C@@H](Oc3nc(-c4ccc(OC(C)C)cn4)cc4cc(OC)ccc34)CN2C(=O)[C@H]1NC(=O)OC(C)(C)C(C)(F)F` [Compound 5483, 3,3-difluoro-2-methylbutan-2-yl((2R,6S,7R,9R,13aS,14aR,16aS,Z)-14a-((cyclopropylsulfonyl)carbamoyl)-7-ethyl-2-((3-(5-isopropoxypyridin-2-yl)-6-methoxyisoquinolin-1-yl)oxy)-9-methyl-5,16-dioxo-1,2,3,5,6,7,8,9,10,11,13a,14,14a,15,16,16a-hexadecahydrocyclopropa[e]pyrrolo[1,2-a][1,4]diazacyclopentadecin-6-yl)carbamate], the EC50 in assay [1] and in assay [2] was 1.01 to 5 nM each time.

Consider `CC[C@@H]1C[C@H](C)CC/C=C\[C@@H]2C[C@@]2(C(=O)NS(=O)(=O)C2CC2)NC(=O)[C@@H]2C[C@@H](Oc3nc(-c4ccc(OC(C)C)cn4)cc4cc(OC)ccc34)CN2C(=O)[C@H]1NC(=O)OC(C)(C)C(F)(F)F` [Compound 5485, 1,1,1-trifluoro-2-methylpropan-2-yl((2R,6S,7R,9R,13aS,14aR,16aS,Z)-14a-((cyclopropylsulfonyl)carbamoyl)-7-ethyl-2-((3-(5-isopropoxypyridin-2-yl)-6-methoxyisoquinolin-1-yl)oxy)-9-methyl-5,16-dioxo-1,2,3,5,6,7,8,9,10,11,13a,14,14a,15,16,16a-hexadecahydrocyclopropa[e]pyrrolo[1,2-a][1,4]diazacyclopentadecin-6-yl)carbamate], for which the concentration giving a half-maximal response (EC50) in assay [1] and in assay [2] was 1.01 to 5 nM throughout.

Consider `CC[C@@H]1C[C@H](C)CC/C=C\[C@@H]2C[C@@]2(C(=O)NS(=O)(=O)C2(C)CC2)NC(=O)[C@@H]2C[C@@H](Oc3nc(-c4ccc(OC(C)C)cn4)cc4cc(OC)ccc34)CN2C(=O)[C@H]1NC(=O)OC(C)(C)C(C)(F)F` [Compound 5487, 3,3-difluoro-2-methylbutan-2-yl((2R,6S,7R,9R,13aS,14aR,16aS,Z)-7-ethyl-2-((3-(5-isopropoxypyridin-2-yl)-6-methoxyisoquinolin-1-yl)oxy)-9-methyl-14a-(((1-methylcyclopropyl)sulfonyl)carbamoyl)-5,16-dioxo-1,2,3,5,6,7,8,9,10,11,13a,14,14a,15,16,16a-hexadecahydrocyclopropa[e]pyrrolo[1,2-a][1,4]diazacyclopentadecin-6-yl)carbamate], for which the EC50 in assay [1] and in assay [2] was 1.01 to 5 nM each time.

As to `CC[C@@H]1C[C@H](C)CC/C=C\[C@@H]2C[C@@]2(C(=O)NS(=O)(=O)C2(C)CC2)NC(=O)[C@@H]2C[C@@H](Oc3nc(-c4ccc(OC(C)C)cn4)cc4cc(OC)ccc34)CN2C(=O)[C@H]1NC(=O)OC(C)(C)C(F)(F)F` [Compound 5489, 1,1,1-trifluoro-2-methylpropan-2-yl((2R,6S,7R,9R,13aS,14aR,16aS,Z)-7-ethyl-2-((3-(5-isopropoxypyridin-2-yl)-6-methoxyisoquinolin-1-yl)oxy)-9-methyl-14a-(((1-methylcyclopropyl)sulfonyl)carbamoyl)-5,16-dioxo-1,2,3,5,6,7,8,9,10,11,13a,14,14a,15,16,16a-hexadecahydrocyclopropa[e]pyrrolo[1,2-a][1,4]diazacyclopentadecin-6-yl)carbamate], the EC50 in assay [1] and in assay [2] was 1.01 to 5 nM each time.

Turning to `[2H]C([2H])([2H])Oc1cc2ccnc(O[C@@H]3C[C@H]4C(=O)N[C@]5(C(=O)NS(=O)(=O)C6(C)CC6)C[C@H]5/C=C\CC[C@@H](C)C[C@@H](CC)[C@H](NC(=O)OC(C)(C)C(F)(F)F)C(=O)N4C3)c2cc1F` [Compound 5503], the EC50 was in the range of 1.01 to 5 nM in assay [1] and 0.51 to 1 nM in assay [2].

For the compound `[2H]C([2H])([2H])Oc1cc2ccnc(O[C@@H]3C[C@H]4C(=O)N[C@]5(C(=O)NS(=O)(=O)C6(C)CC6)C[C@H]5/C=C\CC[C@@H](C)C[C@@H](CC)[C@H](NC(=O)OC(C([2H])([2H])[2H])(C([2H])([2H])[2H])C(F)(F)F)C(=O)N4C3)c2cc1F` [Compound 5505], the results for the EC50 in assay [1] and in assay [2] were 5.01 to 35 nM and 1.01 to 5 nM, respectively.

Take `CC[C@@H]1C[C@H](C)CC/C=C\[C@@H]2C[C@@]2(C(=O)NS(=O)(=O)C2(C)CC2)NC(=O)[C@@H]2C[C@@H](Oc3nccc4cc(OC)ccc34)CN2C(=O)[C@H]1NC(=O)OC(C)(C)C(F)F` [Compound 5523, 1,1-difluoro-2-methylpropan-2-yl((2R,6S,7R,9R,13aS,14aR,16aS,Z)-7-ethyl-2-((6-methoxyisoquinolin-1-yl)oxy)-9-methyl-14a-(((1-methylcyclopropyl)sulfonyl)carbamoyl)-5,16-dioxo-1,2,3,5,6,7,8,9,10,11,13a,14,14a,15,16,16a-hexadecahydrocyclopropa[e]pyrrolo[1,2-a][1,4]diazacyclopentadecin-6-yl)carbamate]: the EC50 in assay [1] was 1.01 to 5 nM; in assay [2], 0.51 to 1 nM.
